Reference: patent publication US20160296511A1, “LAQUINIMOD FOR REDUCING THALAMIC DAMAGE IN MULTIPLE SCLEROSIS” (Teva Pharmaceutical Industries, Ltd., priority 2012, published 2016)
Marks after values point to notes of the source that are not given here.

What was measured:
subjects with RRMS [1] = assay: ALLEGRO sub-study: MT MRI, magnetization transfer ratio (MTR) of NABT, WM, GM and T2 lesions; type: in vivo, human; conditions: for Average MTR of T2 lesions, LS mean (SE) change / GM MTR, LS mean (SE) change / NABT MTR, LS mean (SE) change / WM MTR, LS mean (SE) change: 0.6 mg; for Average MTR of T2 lesions, treatment difference (95% CI) / GM MTR, treatment difference (95% CI) / NABT MTR, treatment difference (95% CI) / WM MTR, treatment difference (95% CI): laquinimod 0.6 mg vs placebo
Procedure: • 1. Frequent MRI (selected countries and sites only): The cumulative number of T1-Gd enhancing lesions taken from scans obtained at months 0, 3, 6, 12, and 24, and in case the study is be extended, 30. Additional MRIs for the ancillary study are performed at months 3 and 6. • 2. Magnetization Transfer (MT) (selected countries and sites only): the change from baseline to month 12 and 24/30 months in magnetization transfer MRI. MT was assessed at months 0 (baseline), 12 and 24 (termination/early discontinuation). In case of the 6 months extended study, the last MT was performed at month 30 (termination/early discontinuation of the extended study) instead of month 24. • 3. Proton MR Spectroscopy (^1H-MRS) (selected countries and sites only): Change from baseline to 24/30 in ^1H-MRS metabolites. ^1H-MRS was assessed at months 0 (baseline), and 24 (termination/early discontinuation). In case of the 6 months extended study, the last ^1H-MRS was performed at month 30 (termination/early discontinuation of the extended study) instead of month 24. • 4. Pharmacogenetic (PGx) assessment: Blood samples for PGx parameters were collected from all subjects at screening. • 5. Brain atrophy, as defined by the percentage of change from one scan to the subsequent scan in brain volume, in addition to the measurements done in the main study (Frequent MRI Cohort). • 6. Whole blood and serum samples (selected countries and sites only) were collected for evaluation of the immunological response to treatment with laquinimod and further investigation of the potential mechanism of action. Whole blood samples were collected at months: 0, 1, 3, 6, 12 and 24. Serum samples were collected at month: 0, 1, 6, 12 and 24 (even if the study is extended to month 30). • 7. Relationship between PGx and response to laquinimod in terms of clinical, MRI and safety parameters. Patients with valid baseline and month 12, and/or month 24 MT MRI assessments were included in the analysis. Least square (LS) mean changes from baseline MTR in NABT, WM, GM and T2-lesions at months 12 and 24, and between months 12 an 24, were evaluated using a MMRM analysis.

subjects with RRMS [2] = assay: ALLEGRO sub-study: WM, GM and thalamic volume analysis (3D T1-weighted MRI); type: in vivo, human; conditions: for Grey matter fraction, % change, median (range) / Thalamic fraction, % change, LS mean (SE) / White matter fraction, % change, median (range): laquinimod 0.6 mg/day oral; for Grey matter fraction, treatment effect (Hodges-Lehmann median estimate for treatment difference) / Thalamic fraction, treatment effect (LS mean difference) / White matter fraction, treatment effect (Hodges-Lehmann median estimate for treatment difference): laquinimod vs placebo; for Treatment effect of laquinimod on thalamic fraction: patients with thalamic lesions at baseline
Procedure: WM, GM, and thalamic volumes were derived from 3D T1-weighted images at baseline and at months 12 and 24. Patients with baseline and at least one valid scheduled post-baseline MRI were included in the analysis. Patients with thalamic lesions at baseline and a valid post-baseline MRI were included in the thalamic lesion analysis. Longitudinal WM and GM volume changes were calculated as the percentage difference from baseline to months 12 and 24. A separate calculation was performed between months 12 and 24. […] The ANCOVA (SAS® PROC GLM) model used treatment group, baseline value of the outcome, number of GdE lesions at baseline and country/geographic region, as covariates. Additionally, analyses of percentage changes in WM volume were also adjusted for GM volume at baseline due to the imbalance that was found between treatment groups at baseline. The Hodges-Lehmann (HL) large sample median estimator associated with the ranked values analysis approach was used to construct two-sided 95% confidence limits for the difference in treatment effects. Percent thalamic volume changes from baseline to months 12 and 24 followed normal distribution and thus were analysed using a parametric MMRM (SAS® PROC MIXED) model corrected for baseline thalamic volume, number of baseline GdE lesions, country/geographic region, visit, treatment and visit by treatment interaction. The least square (LS) mean difference was used to estimate treatment effect. As noted for the % change in WM and GM volumes, percent thalamic volume change from month 12 to month 24 was analyzed using a separate analysis of covariance (ANCOVA) (SAS® PROC GLM) model, since these values […] from the MMRM model. The ANCOVA model used treatment group, baseline thalamic volume, number of baseline GdE lesions and country/geographic region, as covariates. GM at baseline was used as an additional covariate to account for between treatment group imbalance in this measure at baseline.

## CCN(C(=O)c1c(O)c2c(Cl)cccc2n(C)c1=O)c1ccccc1 [Laquinimod]
Subjects with RRMS [1]; Baseline to Month 12
  Average MTR of T2 lesions, LS mean (SE) change: 0.39 (0.25)
  GM MTR, LS mean (SE) change: 0.30 (0.13)
  NABT MTR, LS mean (SE) change: 0.31 (0.12)
  WM MTR, LS mean (SE) change: 0.32 (0.13)
  Average MTR of T2 lesions, treatment difference (95% CI): 0.38 (−0.26, 1.01) p = 0.239
  GM MTR, treatment difference (95% CI): 0.41 (0.08, 0.74) p = 0.014
  NABT MTR, treatment difference (95% CI): 0.40 (0.09, 0.71) p = 0.013
  WM MTR, treatment difference (95% CI): 0.40 (0.09, 0.72) p = 0.013
Subjects with RRMS [1]; Baseline to Month 24
  Average MTR of T2 lesions, LS mean (SE) change: 0.46 (0.29)
  GM MTR, LS mean (SE) change: 0.14 (0.16)
  NABT MTR, LS mean (SE) change: 0.23 (0.15)
  WM MTR, LS mean (SE) change: 0.27 (0.16)
  Average MTR of T2 lesions, treatment difference (95% CI): 0.53 (−0.23, 1.28) p = 0.168
  GM MTR, treatment difference (95% CI): 0.47 (0.04, 0.90) p = 0.034
  NABT MTR, treatment difference (95% CI): 0.50 (0.10, 0.89) p = 0.015
  WM MTR, treatment difference (95% CI): 0.53 (0.13, 0.94) p = 0.011
Subjects with RRMS [1]; Month 12 to Month 24
  Average MTR of T2 lesions, LS mean (SE) change: 0.07 (0.24)
  GM MTR, LS mean (SE) change: −0.16 (0.15)
  NABT MTR, LS mean (SE) change: −0.08 (0.14)
  WM MTR, LS mean (SE) change: −0.05 (0.13)
  Average MTR of T2 lesions, treatment difference (95% CI): 0.15 (−0.51, 0.81) p = 0.651
  GM MTR, treatment difference (95% CI): 0.06 (−0.37, 0.49) p = 0.787
  NABT MTR, treatment difference (95% CI): 0.10 (−0.31, 0.50) p = 0.642
  WM MTR, treatment difference (95% CI): 0.13 (−0.24, 0.51) p = 0.486
Subjects with RRMS [2]; baseline to month 12
  Grey matter fraction, % change, median (range): −0.3 (−19.4 to 22.4) %
  Thalamic fraction, % change, LS mean (SE): −0.6 (0.12) %
  White matter fraction, % change, median (range): 0.0 (−24.7 to 11.9) %
  Grey matter fraction, treatment effect (Hodges-Lehmann median estimate for treatment difference): 0.502* %
  Thalamic fraction, treatment effect (LS mean difference): 0.408^† %
  White matter fraction, treatment effect (Hodges-Lehmann median estimate for treatment difference): 0.394* %
Subjects with RRMS [2]; baseline to month 24
  Grey matter fraction, % change, median (range): −0.9 (−17.4 to 21.2) %
  Thalamic fraction, % change, LS mean (SE): −1.3 (0.15) %
  White matter fraction, % change, median (range): −0.3 (−27.3 to 19.2) %
  Grey matter fraction, treatment effect (Hodges-Lehmann median estimate for treatment difference): 0.372* %
  Thalamic fraction, treatment effect (LS mean difference): 0.60^† %
  White matter fraction, treatment effect (Hodges-Lehmann median estimate for treatment difference): 0.327* %
Subjects with RRMS [2]; month 12 to month 24
  Grey matter fraction, % change, median (range): −0.7 (−11.5 to 16.6) %
  Thalamic fraction, % change, LS mean (SE): −0.7 (0.13) %
  White matter fraction, % change, median (range): −0.2 (−15.3 to 15.0) %
  Grey matter fraction, treatment effect (Hodges-Lehmann median estimate for treatment difference): −0.078* %
  Thalamic fraction, treatment effect (LS mean difference): 0.233^† %
  White matter fraction, treatment effect (Hodges-Lehmann median estimate for treatment difference): −0.013* %
Subjects with RRMS [2]; 12 months (p=0.018)
  Treatment effect of laquinimod on thalamic fraction: statistically significant
Subjects with RRMS [2]; 24 months (p<0.0001)
  Treatment effect of laquinimod on thalamic fraction: statistically significant
Subjects with RRMS [2]; patients without T2 thalamic lesions at baseline, month 12 or 24
  Treatment effect of laquinimod on thalamic fraction change vs placebo: not significantly different
